How the values were obtained:
[1] = test system: MCF-7; experiment: In vitro anti-proliferative activity, MTT assay; format: cell-based; conditions: Homo sapiens, MCF7, 48 h, read-out: In vitro IC50 (nM) Mean ± SD MCF-7
[2] = biological target: CDK2/cyclin A2 (Homo sapiens, UniProt P24941); experiment: CDK2/cyclin A2 Kinase-Glo Plus luminescence kinase assay

Compound | IC50 [1] [nM] | IC50 [2] [µM]
Cc1ccc(NCC(=O)n2ncc3c(=N)n(N[C@@H]4O[C@H](CO)[C@@H](O)[C@H](O)[C@H]4O)cnc32)cc1 [Compound 5, 1-(4-Imino-5-((β-D-glucopyranosyl)amino)-4,5-dihydro-1H-pyrazolo[3,4-d]pyrimidin-1-yl)-2-(p-tolylamino)ethan-1-one] | 88 ± 0.99 | 1.02 ± 0.057
Cc1ccc(NCC(=O)n2ncc3c2ncn2nc(SCC#N)nc32)cc1 [Compound 8, 2-((7-(p-Tolylglycyl)-7H-pyrazolo[4,3-e][1,2,4]triazolo[1,5-c]pyrimidin-2-yl)thio)acetonitrile] | 53 ± 2.7 | 0.589 ± 0.033
CC(=O)OCC(CSc1nc2c3cnn(C(=O)CNc4ccc(C)cc4)c3ncn2n1)OC(C)=O (stereo not shown) [Compound 11, 3-((7-(p-Tolylglycyl)-7H-pyrazolo[4,3-e][1,2,4]triazolo[1,5-c]pyrimidin-2-yl)thio)propane-1,2-diyl diacetate] | 91 ± 4.2 | 3.65 ± 0.203
Cc1ccc(NCC(=O)n2ncc3c2ncn2[nH]c(=S)nc32)cc1 [Compound 7, 1-(2-Thioxo-2,3-dihydro-7H-pyrazolo[4,3-e][1,2,4]triazolo[1,5-c]pyrimidin-7-yl)-2-(p-tolylamino)ethan-1-one] | 951 ± 33 | –
Cc1ccc(NCC(=O)n2ncc3c2ncn2nc(SCC(O)CO)nc32)cc1 (stereo not shown) [Compound 10, 1-{2-[(2,3-Dihydroxypropyl)thio]-7H-pyrazolo[4,3-e][1,2,4]triazolo[1,5-c]pyrimidin-7-yl}-2-(p-tolylamino)ethan-1-one] | 53 ± 2.1 | 0.336 ± 0.019
Cc1ccc(NCC(=O)n2ncc3c(=N)n(N[C@@H]4OC[C@@H](O)[C@H](O)[C@H]4O)cnc32)cc1 [Compound 6, 1-(4-Imino-5-((β-D-xylopyranosyl)amino)-4,5-dihydro-1H-pyrazolo[3,4-d]pyrimidin-1-yl)-2-(p-tolylamino)ethan-1-one] | 552 ± 23 | –
COC(CSc1nc2c3cnn(C(=O)CNc4ccc(C)cc4)c3ncn2n1)OC [Compound 9, 1-(2-((2,2-Dimethoxyethyl)thio)-7H-pyrazolo[4,3-e][1,2,4]triazolo[1,5-c]pyrimidin-7-yl)-2-(p-tolylamino)ethan-1-one] | 95 ± 4 | –
Cc1ccc(NCC(=O)n2ncc3c(=N)n(N)cnc32)cc1 [Compound 4, 1-(5-Amino-4-imino-4,5-dihydro-1H-pyrazolo[3,4-d]pyrimidin-1-yl)-2-(p-tolylamino)ethan-1-one] | 79 ± 1.4 | –

Next, values leading:

IC50 [1] [nM] | IC50 [2] [µM] | Compound
59 ± 0.94 | 0.081 ± 0.004 | CC(=O)OCCSc1nc2c3cnn(C(=O)CNc4ccc(C)cc4)c3ncn2n1 [Compound 13, 2-((7-(p-Tolylglycyl)-7H-pyrazolo[4,3-e][1,2,4]triazolo[1,5-c]pyrimidin-2-yl)thio)ethyl acetate]
144 ± 0.47 | – | CNC(=O)c1cc(Oc2ccc(NC(=O)Nc3ccc(Cl)c(C(F)(F)F)c3)cc2)ccn1 [Sorafenib, reference compound]
97 ± 1.7 | – | Cc1ccc(NCC(=O)n2ncc3c2ncn2nc(SCCO)nc32)cc1 [Compound 12, 1-(2-((2-Hydroxyethyl)thio)-7H-pyrazolo[4,3-e][1,2,4]triazolo[1,5-c]pyrimidin-7-yl)-2-(p-tolylamino)ethan-1-one]
